Reference: patent US6812015B1, “Histidine protein-phosphatase” (Merck Patent Gesellschaft, priority 1999, dated 2004)
Where two headings read alike, the source gives them in different places.

What was measured:
[1] = tested on: histidine protein phosphatase; assay: Hydrolysis of substrates by the novel histidine protein phosphatase (specificity); type: biochemical, rabbit
Description: (§1) The activity of the soluble histidine phosphatase is determined from the dephosphorylation of ^32P-labelled histidine-phosphorylated protein (CheA) as substrate. CheA is a recombinant bacterial histidine autokinase (Bilwes A M, Alex L A, Crane B R, Simon M I (1999) Cell 96:131-141); the C-terminal kinase domain phosphorylates the N-terminal His48. […] Detection on the one hand via ammonium molybdate, and on the other hand by autoradiography (FIG. 2).
(§2) The substrate (10 μl of ^32P-CheA) is mixed with […] of assay buffer (100 mM triethanolamine/hydrochloric acid pH 8.0, 0.1% 2-mercaptoethanol, 0.02% sodium nitrite) and the enzyme solution. The reaction takes place at 37° C. in 30 min. […] After a centrifugation (5 min at 15,800 g), the supernatant is removed and measured in a scintillation counter.

[2] = tested on: histidine phosphatase; assay: Reagents affecting histidine phosphatase activity (dephosphorylation of 32P-CheA); type: biochemical, rabbit
Description: as §1, §2

[3] = molecular target: histidine protein phosphatase purified from rabbit liver (rabbit) (UniProt P83468); assay: cell-based or functional assay
[4] = type: physicochemical, rabbit; settings: in the crude homogenate and in the partially purified fractions
[5] = molecular target: [gamma-32P] His-nucleoside diphosphate kinase
[6] = molecular target: 32P-labelled histidine-phosphorylated CheA (recombinant bacterial histidine autokinase)
[7] = molecular target: [gamma-32P] Ser/Thr-Casein

Molecule: O=[N+]([O-])c1ccc(OP(=O)(O)O)cc1 [p-nitrophenyl phosphate]
- Hydrolysis by the histidine phosphatase [1]: did not hydrolyze

Molecule: CO[C@H]([C@H](O)CC(=O)[C@@H](C)[C@@H](O)CC[C@@H](C)[C@@H]1O[C@]2(CC[C@@H](C)[C@H](CC[C@H](C)C(C)=O)O2)CC[C@@H]1C)[C@H](OC(=O)C[C@@H](O)C1=C(C)C(=O)OC1=O)C(C)C [Tautomycin]
- Activity (%) ([2]; reagent concentration 0.5 nM): 90%

Molecule: [O]=[V]([O-])([O-])[O-] [Vanadate]
- Inhibition of histidine phosphatase activity [2]: not being inhibited
- Activity (%) ([2]; 10 µM): 62%

Molecule: [O]=[Mo](=[O])([O-])[O-] [Molybdate]
- Activity (%) ([2]; 10 µM): 71%

Molecule: [Ca+2] [Ca^2+]
- Activity (%) ([2]; reagent concentration 1 mM): 165%
- Activity (%) ([2]; reagent concentration 10 mM): 240%

Molecule: O=C(O)CN(CCOCCOCCN(CC(=O)O)CC(=O)O)CC(=O)O [EGTA]
- Activity (%) ([2]; reagent concentration 5 mM): 91%

Molecule: Microcystin
- Activity (%) ([2]; 0.005 µM): 110%

Molecule: C=C1[C@@H](O)[C@@H]2O[C@]3(CC[C@H](/C=C/[C@@H](C)[C@@H]4CC(C)=C[C@@]5(O[C@H](C[C@@](C)(O)C(=O)O)CC[C@H]5O)O4)O3)CC[C@H]2O[C@@H]1[C@@H](O)C[C@H](C)[C@H]1O[C@@]2(CCCCO2)CC[C@H]1C [Okadaic acid]
- Activity (%) ([2]; reagent concentration 10 μM): 108%
- Inhibition of histidine phosphatase activity ([2]; text statement referring to Table 2): not being inhibited

Molecule: [Mg+2] [Mg^2+]
- Activity (%) ([2]; reagent concentration 1 mM): 142%
- Activity (%) ([2]; reagent concentration 10 mM): 226%

Molecule: Inhibitor protein I1
- Activity (%) of histidine phosphatase with 1 nM reagent [3]: 120%

B1: histidine protein phosphatase purified from rabbit liver (protein)
chain: AAAGLAQIPDVDIDSDGVFKYVLIRVHAAPPSEAPGGESKDIVRGYKWAEYHADIYDKVSGELQKKGHDCECLGGGRISHQSQDRKIHVYGYSMGYGRAQHSVSTEKIRAKYPDYEVTWADDGY
- storage stability [4]: shows storage stability
- Hydrolysis by the novel histidin protein phosphatase [5]: -
- Hydrolysis by the novel histidin protein phosphatase [6]: +
- histidine dephosphorylation of 32P-phosphorylated CheA [6]: The purified protein shows time-, temperature-, pH- and protein-dependent histidine dephosphorylation of the 32P-phosphorylated CheA
- Hydrolysis by the novel histidin protein phosphatase [7]: -
